In data set [1] the target is T1, Xanthine dehydrogenase/oxidase (Bos taurus, UniProt P80457). The data set can be described thus: Inhibition of bovine xanthine oxidase assessed as inhibition of uric acid formation at 10000 nM after 30 mins by spectrophotometry. To be noted: cattle, 0.5 h.
For data set [2], the target named is T1, Xanthine dehydrogenase/oxidase. The data set can be described thus: Inhibition of bovine xanthine oxidase assessed as inhibition of uric acid formation after 30 mins by spectrophotometry.
Data set [3] has the same target. The data set can be described thus: Mixed-type inhibition of bovine xanthine oxidase assessed as inhibition of uric acid formation by Lineweaver-Burk plot.
The target is the same in data set [4]. As to the kind of experiment: Mixed-type inhibition of reduced form of bovine xanthine oxidase assessed as inhibition of uric acid formation by Lineweaver-Burk plot. To be noted: cattle.
For data set [5] the target is unchanged. The data set can be described thus: Mixed-type inhibition of oxidized form of bovine xanthine oxidase assessed as inhibition of uric acid formation by Lineweaver-Burk plot. Particulars: cattle; call rule not given here.
The target is the same in data set [6]. As to the kind of experiment: Mixed-type inhibition of bovine xanthine oxidase assessed as inhibition of uric acid formation by secondary Lineweaver-Burk plot.

The structures appear in SMILES notation.

T1 sequence (P80457 whole entry): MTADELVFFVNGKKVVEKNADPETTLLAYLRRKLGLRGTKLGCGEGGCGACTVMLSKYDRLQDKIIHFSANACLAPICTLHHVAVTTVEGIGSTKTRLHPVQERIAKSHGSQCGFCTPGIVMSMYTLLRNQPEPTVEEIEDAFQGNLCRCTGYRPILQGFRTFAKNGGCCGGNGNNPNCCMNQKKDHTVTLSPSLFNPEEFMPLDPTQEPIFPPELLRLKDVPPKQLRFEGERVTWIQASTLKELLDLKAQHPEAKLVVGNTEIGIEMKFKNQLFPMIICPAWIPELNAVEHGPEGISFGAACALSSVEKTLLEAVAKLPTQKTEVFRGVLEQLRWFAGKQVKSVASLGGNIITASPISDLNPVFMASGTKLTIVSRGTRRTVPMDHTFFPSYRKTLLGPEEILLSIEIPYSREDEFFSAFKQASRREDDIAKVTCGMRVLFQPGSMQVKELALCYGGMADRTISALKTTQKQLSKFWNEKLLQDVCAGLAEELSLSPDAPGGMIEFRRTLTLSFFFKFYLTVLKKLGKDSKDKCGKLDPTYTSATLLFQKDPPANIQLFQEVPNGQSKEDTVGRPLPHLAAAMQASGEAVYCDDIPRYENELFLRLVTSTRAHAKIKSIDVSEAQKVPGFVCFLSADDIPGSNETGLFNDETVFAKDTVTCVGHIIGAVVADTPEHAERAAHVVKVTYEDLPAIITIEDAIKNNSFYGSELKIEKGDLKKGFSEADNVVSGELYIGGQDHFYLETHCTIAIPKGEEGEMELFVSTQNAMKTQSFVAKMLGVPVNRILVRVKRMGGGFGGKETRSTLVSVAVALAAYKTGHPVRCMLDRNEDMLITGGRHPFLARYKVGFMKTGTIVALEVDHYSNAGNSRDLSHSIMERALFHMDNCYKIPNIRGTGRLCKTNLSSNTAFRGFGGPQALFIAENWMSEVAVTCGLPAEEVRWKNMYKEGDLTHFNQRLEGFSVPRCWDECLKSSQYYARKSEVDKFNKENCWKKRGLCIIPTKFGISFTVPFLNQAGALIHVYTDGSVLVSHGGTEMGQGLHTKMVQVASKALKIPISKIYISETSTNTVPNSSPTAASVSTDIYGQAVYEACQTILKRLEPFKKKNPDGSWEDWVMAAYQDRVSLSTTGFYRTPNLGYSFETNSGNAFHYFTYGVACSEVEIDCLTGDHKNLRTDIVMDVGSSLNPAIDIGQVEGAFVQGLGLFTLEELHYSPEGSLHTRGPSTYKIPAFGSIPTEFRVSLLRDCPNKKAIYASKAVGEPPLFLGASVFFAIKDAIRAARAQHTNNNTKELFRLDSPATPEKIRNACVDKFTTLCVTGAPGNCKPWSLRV

The inhibition is the relative decrease from the control value, in per cent. As to `C=CCOc1ccc(-c2nc(C)c(C(=O)OCC)[se]2)cc1C#N`, the inhibition at 10 µM in data set [1] is less than 50%.

As a reminder, the IC50 is the midpoint of a concentration-inhibition curve. `CCOc1ccc(-c2nc(C)c(C(=O)O)[se]2)cc1[N+](=O)[O-]`: the IC50 in data set [2] came to 82.5 nM.

With `Cc1nc(-c2ccc(OCC(C)C)c([N+](=O)[O-])c2)[se]c1C(=O)O`, in data set [2], the IC50 came to 33.7 nM.

For `CCCCOc1ccc(-c2nc(C)c(C(=O)O)[se]2)cc1C#N`, the IC50 in data set [2] was 13.2 nM.

As for `C#CCOc1ccc(-c2nc(C)c(C(=O)O)[se]2)cc1C#N`, the IC50 in data set [2] was determined as 53.8 nM.

With `C=CCOc1ccc(-c2nc(C)c(C(=O)O)[se]2)cc1[N+](=O)[O-]`, in data set [2], the IC50 came out at 16.1 nM.

For the compound `CCCCOc1ccc(-c2nc(C)c(C(=O)O)[se]2)cc1[N+](=O)[O-]`, the concentration for half-maximal inhibition (IC50) in data set [2] was 49.2 nM.

The Ki is the equilibrium dissociation constant of an inhibitor or competing ligand from its target. In the case of `C=CCOc1ccc(-c2nc(C)c(C(=O)O)[se]2)cc1C#N`, the Ki in data set [3] came to 0.9 nM; in data set [6], 2.3 nM. Also, the half-inhibitory concentration (IC50) in data set [2] stood at 5.5 nM. The “inhibition (INH)” value in data set [4] and in data set [5] was “Active” in each case.

With `Cc1nc(-c2ccc(OCc3ccccc3)c([N+](=O)[O-])c2)[se]c1C(=O)O`, the IC50 in data set [2] stood at 40.3 nM.

Take `CCCCCOc1ccc(-c2nc(C)c(C(=O)O)[se]2)cc1C#N`: the IC50 in data set [2] turned out to be 45.6 nM.

Consider `CCCOc1ccc(-c2nc(C)c(C(=O)O)[se]2)cc1C#N`, for which the IC50 in data set [2] stood at 16.2 nM.

Consider `Cc1nc(-c2ccc(OCCC(C)C)c([N+](=O)[O-])c2)[se]c1C(=O)O`, for which the IC50 in data set [2] is 65.6 nM.

Regarding `CCC(C)Oc1ccc(-c2nc(C)c(C(=O)O)[se]2)cc1C#N` (stereo not drawn), in data set [2], the IC50 worked out at 10.4 nM.

For `COc1ccc(-c2nc(C)c(C(=O)O)[se]2)cc1C#N`, the IC50 in data set [2] amounted to 30.6 nM.

These data come from ChEMBL document CHEMBL3352102, “Synthesis and bioevaluation of 2-phenyl-4-methyl-1,3-selenazole-5-carboxylic acids as potent xanthine oxidase inhibitors” (Eur J Med Chem, 2014).
